The term IC50 denotes the point on the concentration scale where inhibition reaches its midpoint.

The results in this text go back to paper PMC4199632, “Exploring the Anti-Cancer Activity of Novel Thiosemicarbazones Generated through the Combination of Retro-Fragments: Dissection of Critical Structure-Activity Relationships” (PLoS ONE, 2014).

Bounds are passed on as bounds.

Test [1] relates to HCT116 p53+/+ colon cancer cells. Nature of the test: Proliferation assay (MTS, 96 h). Format: cell-based, human. The settings on record: for IC50: Homo sapiens, HCT-116, 96 h incubation, MTS, mean ±SD (3 experiments); for Therapeutic index NHDF vs. HCT116 p53+/+: NHDF cell IC50 divided by HCT116 p53+/+ IC50. Here is the method: (§1) The human cancer cell types (neuroepithelioma (SK-N-MC), colon cancer (HCT116 with wild-type p53 (p53^+/+)), Burkitt's lymphoma (Raji) and cervical carcinoma (HeLa)) cells and normal human dermal fibroblasts (NHDF) were obtained from the American Type Culture Collection (ATCC, Manassas, VA, USA). HCT116 null p53 (p53^−/−) cells were obtained from the Maria Sklodowska-Curie Memorial Cancer Center and Institute of Oncology, Poland.
(§2) The SK-N-MC cells were cultured in minimum essential medium (MEM; Life Technologies, Grand Island, New York, USA) containing 10% (v/v) fetal bovine serum (FBS; Life Technologies), 1 mM sodium pyruvate (Life Technologies), 1% (v/v) non-essential amino acids (Life Technologies), 2 mM L-glutamine (Life Technologies), 100 U/mL penicillin (Life Technologies), 100 µg/mL streptomycin (Life Technologies) and 0.28 µg/mL fungizone (Bristol Myers Squibb Pharmaceuticals, Montreal, Canada). The HCT116 and NHDF cells were grown in Dulbecco's modified Eagle's medium (DMEM; Sigma-Aldrich) supplemented with 12% (v/v) heat-inactivated FBS (HCT116; Life Technologies) or 15% (v/v) FBS (NHDF; Life Technologies), 100 µg/mL of gentamicin (Polfa Warszawa S.A., Warsaw, Poland), 100 µg/mL of streptomycin (Polfa) and 100 U/mL of penicillin (Polfa). The Raji and HeLa cells were cultured in Roswell Park Memorial Institute medium (RPMI-1640; Sigma-Aldrich) with the addition of 10% (v/v) heat-inactivated FBS (Life Technologies) and the supplements described for SK-N-MC cells above. All cell lines were cultured under standard conditions at 37°C in a humidified atmosphere at 5% CO2 and were subcultured every 3–4 days as required.
(§3) The cells were seeded in 96-well plates (SK-N-MC: 1.5×10^4 cells/well; HeLa: 5.0×10^3 cells/well; Raji: 3.0×10^3 cells/well; HCT116: 3.5×10^3 cells/well; NHDF: 3.0×10^3 cells/well) 24 h prior to the addition of the novel compounds. The assays were performed using a 72 h (SK-N-MC, Raji, HeLa) or 96 h (HCT 116, NHDF) incubation period with the agents at 37°C. […] Additionally, DFO and Dp44mT were included as positive controls in all experiments as their activity is well characterized, [42], [50].
(§4) Chelator stock solutions were prepared in DMSO and diluted in media so that the final [DMSO] <0.05%. The results were expressed as a percentage of the control and the resulting IC50 values were calculated using GraphPad Prism 5 (GraphPad Software, Inc., La Jolla, CA, USA). The IC50 was defined as the concentration necessary to reduce the absorbance to 50% of the untreated control. Each individual compound was tested in triplicate in a single experiment, with each experiment being repeated three times. After incubation of HCT 116 and NHDF cells with the tested compounds, 20 µL of the CellTiter 96 Aqueous One Solution - MTS (Promega, Madison, WI, USA) solution was added to each well (with 100 µL of DMEM without phenol red) and incubated for 1 h/37°C. The optical density of the samples was analyzed at 490 nm.

In test [2] the test system is HCT116 p53−/− colon cancer cells. As to the kind of experiment: Proliferation assay (MTS, 96 h). Format: cell-based, human. The settings on record: for IC50: Homo sapiens, HCT-116, 96 h, 96 h incubation, MTS, mean ±SD (3 experiments); for Therapeutic index NHDF vs. HCT116 p53−/−: NHDF cell IC50 divided by HCT116 p53−/− IC50. Here is the method: as §1, §2, §3, §4
In test [3] the test system is Raji Burkitt's lymphoma cells. Nature of the test: Proliferation assay (MTT, 72 h). Format: cell-based. Particulars: Homo sapiens, 72 h incubation, mean ±SD (3 experiments). How it is done: as §1, §2, §3, §4
(§5) MTT (3-[4,5-dimethylthiazol-2-yl]-2,5-diphenyltetrazolium bromide) was used to evaluate the anti-proliferative effects of the chelators in SK-N-MC and Raji cells. Following incubation with the investigated compounds, 10 µL of MTT (5 mg/mL in PBS; Sigma-Aldrich) was added to each well. After a 2 h (SK-N-MC) or 4 h (Raji) incubation, the plates were centrifuged, and the cells were lysed with 100 µL of 10% SDS-50% isobutanol in 0.01 M HCl (SK-N-MC) or DMSO (Raji). The absorbance was measured at 570 nm. The anti-proliferative effects of these novel agents on HeLa cells were estimated using crystal violet staining (0.5% crystal violet solution for 10 min). Finally, the wells were rinsed with water and the cells were lysed with 2% SDS. The optical density of the samples was analyzed at 595 nm.

In test [4] the test system is SK-N-MC neuroepithelioma cells. Nature of the test: Proliferation assay (MTT, 72 h). Format: cell-based. Particulars: Homo sapiens, 72 h incubation, mean ±SD (3 experiments). Here is the method:
as §1, §2, §3, §4, §5

Test [5] concerns HeLa cervical carcinoma cells. Nature of the test: Proliferation assay (crystal violet, 72 h). Particulars: Homo sapiens, 72 h incubation, mean ±SD (3 experiments). Type of test: cell-based. How it is done: as §1, §2, §3, §4, §5
Test [6] has as its system normal human dermal fibroblast (NHDF) cells. As to the kind of experiment: Proliferation assay (MTS, 96 h), normal mortal cells. Format: cell-based. The settings on record: 96 h incubation, mean ±SD (3 experiments). Here is the method:
as §1, §2, §3, §4

Test [7] can be described thus: Ascorbate oxidation assay (iron complexes). Particulars: iron complex, IBE 3; FeIII 10 µM, ascorbate 100 µM. Format: biochemical. How it is done:
The ability of the iron complexes of the novel ligands to mediate the oxidation of the physiological substrate, ascorbate, was examined using established methods, [18], [22], [52], [53]. Ascorbic acid (100 µM) was prepared immediately prior to each experiment and was incubated in the presence of Fe^III (10 µM; as FeCl3), the chelator (1–60 µM) and a 50-fold molar excess of citrate (500 µM). The absorbance at 265 nm was measured after 10 and 40 min and the difference in absorbance at these time points was calculated. The results of these experiments were expressed as iron-binding equivalents (IBE) due to the different denticity of the chelators examined. The chelators, Dp44mT, DFO and ethylenediaminetetraacetic acid (EDTA) were used as controls as the ability of their iron complexes to oxidize ascorbate has been extensively characterized, [15], [52], [53].
The ability of the iron complexes of the novel TSCs to catalyze the oxidation of the physiological substrate, ascorbate, was important to assess as redox cycling may play a critical role in their anti-proliferative activity, [15], [18], [52], [53]. Thus, the oxidation of ascorbate mediated by the iron complexes of series 1–6 were examined in comparison to the iron complexes of the control compounds, DFO, EDTA and Dp44mT, as the ability of the latter to oxidize ascorbate is well characterized, [15], [52], [53], [68]. The results were expressed as a percentage of the control (no chelator) at iron-binding equivalents (IBEs) of 0.1 (excess “free” iron), 1 (iron-chelator complexes with a fully filled coordination sphere), or 3 (excess free chelator), due to the different denticity of the chelators examined (Fig. 10).
Figure 10 Effect of the iron complexes of (A) series 1, (B) series 2, (C) series 3, (D) series 4, (E) series 5 and (F) series 6 chelators, relative to DFO, Dp44mT and EDTA, on ascorbate oxidation. Chelators at iron-binding equivalent (IBE) ratios of 0.1, 1, and 3 were incubated in the presence of Fe^III (10 µM) and ascorbate (100 µM). The UV-Vis absorbance at 265 nm was recorded after 10 and 40 min, and the difference between the time points was calculated. Results are mean ±SD (3 experiments).

For test [8], the system named is HCT116 p53+/+, HCT116 p53−/−, Raji, HeLa, SK-N-MC and NHDF cells. As to the kind of experiment: Proliferation assay, ranges stated over several cell-types. Type of test: cell-based, human. The settings on record: for IC50: Homo sapiens, HCT-116, range over HCT116 p53+/+ and p53−/− cells and over the compounds named, read-out: IC50 range in HCT116 cells; for Therapeutic index, NHDF relative to HCT116 cells: range over HCT116 p53+/+ and p53−/− and over the compounds named. Here is the method:
as §1, §2, §3, §4, §5

For the compound `S=C(NN=C(c1ccccn1)c1ccccn1)N1CCN(c2ccccc2)CC1` [1b], the IC50 stood at 0.8 ± 0.1 nM in test [1]; 0.8 ± 0.1 nM in test [2]; 0.3 ± 0.03 nM in test [3]; 50 ± 10 nM in test [4]; 570 ± 160 nM in test [5]; 1.7 ± 0.7 nM in test [6] (Homo sapiens, NHDF, 96 h). Also, the IC50 in test [8] was 0.8 to 90 nM. In test [1], the “Therapeutic index NHDF vs. HCT116 p53+/+” value worked out at 2. For the same compound, in test [2], the “Therapeutic index NHDF vs. HCT116 p53−/−” value worked out at 2. In addition, in test [7], the “Ascorbate oxidation (% of the control)” value is 200–265%. For the same compound, the “Therapeutic index, NHDF relative to HCT116 cells” value in test [8] came to 2.
For the compound `S=C(NN=C(c1ccccn1)c1ccccn1)N1CCN(c2ccccn2)CC1` [1d, Z-N′-(di(pyridin-2-yl)methylene)-4-(pyridin-2-yl)piperazine-1-carbothiohydrazide], the IC50 turned out to be 2 nM in test [1]; 9 ± 1 nM in test [2]; 1.3 ± 0.1 nM in test [3]; 20 ± 10 nM in test [4]; 30 ± 20 nM in test [5]; 160 ± 40 nM in test [6]. Further, the IC50 in test [6] (Homo sapiens, NHDF, 96 h) lay in the range of 160 to 10600 nM; in test [8], 2 to 17 nM. In addition, the “Therapeutic index NHDF vs. HCT116 p53+/+” value in test [1] amounted to 80. The “Therapeutic index NHDF vs. HCT116 p53−/−” value in test [2] worked out at 18. Moreover, the “Ascorbate oxidation (% of the control)” value in test [7] is on record as 200–265%. Moreover, the “Therapeutic index, NHDF relative to HCT116 cells” value in test [8] is given as 18–2650.
Turning to `Oc1cccc2ccc(/C=N/NC(=S)N3CCOCC3)nc12` [3c], the IC50 in test [1] is 4 ± 2 nM; in test [2], 17 ± 6 nM; in test [3], 20 ± 10 nM; in test [4] it was greater than 6250 nM; in test [5] it was 180 ± 70 nM; in test [8] it was 2 to 17 nM. The “Therapeutic index NHDF vs. HCT116 p53+/+” value in test [1] is 2650. Also, the “Therapeutic index NHDF vs. HCT116 p53−/−” value in test [2] is given as 624. In addition, the “Therapeutic index, NHDF relative to HCT116 cells” value in test [8] is recorded as 18–2650.
